# Assay results taken from patent publication US10441578B2, “Altering expression level of glutathione S-transferase genes by treating a human subject with a nitroxide” (priority 2018, dated 2019).
# Experiments:
# Assay type in all cases: in vivo
# [1] = tested on: Glutathione S-transferase kappa1 (Gstk1); assay: Microarray gene expression in white adipose tissue of Tempol-fed mice
# Protocol: (§1) To assess the effects of Tempol on gene expression, Tempol was administered to experimental mice at a dose of 5 mg/g of food from 14 months to 31 months after birth. Mice receiving the same food without the addition of Tempol were used as a negative control. At the age of 31 months, the experimental animals were sacrificed and the hearts were surgically removed. The expression of a broad spectrum of genes in white adipose tissue tissue was assessed using chip-based microarray technology. Such chips are well known in the art and are widely used to assess gene expression.
# [2] = tested on: Glutathione S-transferase, alpha 3 (Gsta3); assay: as above
# Protocol: as §1
# [3] = tested on: Glutathione S-transferase, alpha 4 (Gsta4); assay: as above
# Protocol: as §1
# [4] = tested on: Glutathione S-transferase, mu 1 (Gstm1); assay: as above
# Protocol: as §1
# [5] = tested on: Glutathione S-transferase, mu 3 (Gstm3); assay: as above
# Protocol: as §1
# [6] = tested on: Glutathione S-transferase, mu 4 (Gstm4); assay: as above
# Protocol: as §1
# [7] = tested on: Glutathione S-transferase, mu 6 (Gstm6); assay: as above
# Protocol: as §1
# [8] = tested on: Glutathione S-transferase, pi 1 (Gstp1); assay: as above
# Protocol: as §1
# [9] = tested on: Glutathione S-transferase, theta 1 (Gstt1); assay: as above
# Protocol: as §1
# [10] = tested on: Glutathione S-transferase, theta 2 (Gstt2); assay: as above
# Protocol: as §1
# [11] = tested on: Gstm3, Gstm6, Gsta3, Gstt1, Gsta4, Gstm1, Gstm4, Gstt2, Gstp1, or Gstk1; assay: Treatment of a human subject with a nitroxide antioxidant, serum level of GST; conditions: 1500 mg per day for 180 days
# Protocol: (§2) A 70-kilogram human subject over the age of 65 is identified for decreased expression level of Gstm3, Gstm6, Gsta3, Gstt1, Gsta4, Gstm1, Gstm4, Gstt2, Gstp1, or Gstk1. The human subject is administered a dose of 1500 mg of a nitroxide antioxidant (e.g., Tempol) per day for 180 days. This may be administered in a single dose, or may be administered as a number of smaller doses over a 24-hour period: for example, three 500-mg doses at eight-hour intervals. Following treatment, the serum level of Gstm3, Gstm6, Gsta3, Gstt1, Gsta4, Gstm1, Gstm4, Gstt2, Gstp1, or Gstk1, is increased.
# as §2, with “65 and having a cardiovascular disease” for “65”
# as §2, with “subject” for “subject over the age of 65”
# as §2, with “subject” for “subject over the age of 65”, “Gstk1 that is associated with a disease (e.g., caused by or causing a disease).” for “Gstk1.”
# as §2, with “at risk” for “over the age”, “developing a cancer (e.g., colorectal cancer) or having a cancer” for “65”
# as §2, with “at risk” for “over the age”, “developing or having an autoimmune disease (e.g., rheumatoid arthritis)” for “65”
# A 70-kilogram human subject of person at risk of developing, or having, a condition due to aging is identified. The human subject is administered a dose of 1500 mg of a nitroxide antioxidant (e.g., Tempol) per day for 180 days. […]
# [12] = Tempol-treated vs control mice, microarray
# [13] = Tempol-treated vs control mice, P-value 0.003
# [14] = Tempol-treated vs control mice, P-value 0.001
structure (smiles),measurement,setting,value
"CC1(C)CC(O)CC(C)(C)N1[O] [Tempol, 4-hydroxy-2,2,6,6-tetramethylpiperidine-1-oxyl]","Expression, Tempol-treated mice","[1]; Tempol 5 mg/g of food from 14 to 31 months after birth, microarray, control mice 1140",1325
same,Fold change,"[1]; Tempol-treated vs control mice, P-value 0.015",1.16
same,Change in expression (in words),[1]; [12],statistically significant increase in expression
same,"Expression, Tempol-treated mice","[2]; Tempol 5 mg/g of food from 14 to 31 months after birth, microarray, control mice 668",1183
same,Fold change,"[2]; Tempol-treated vs control mice, P-value 0.004",1.77
same,Change in expression (in words),[2]; [12],statistically significant increase in expression
same,"Expression, Tempol-treated mice","[3]; Tempol 5 mg/g of food from 14 to 31 months after birth, microarray, control mice 195",284
same,Fold change,"[3]; Tempol-treated vs control mice, P-value 0.006",1.45
same,Change in expression (in words),[3]; [12],statistically significant increase in expression
same,"Expression, Tempol-treated mice","[4]; Tempol 5 mg/g of food from 14 to 31 months after birth, microarray, control mice 6291",8548
same,Fold change,[4]; [13],1.36
same,Change in expression (in words),[4]; [12],statistically significant increase in expression
same,"Expression, Tempol-treated mice","[5]; Tempol 5 mg/g of food from 14 to 31 months after birth, microarray, control mice 10",74
same,Fold change,[5]; [14],7.52
same,Change in expression (in words),[5]; [12],statistically significant increase in expression
same,"Expression, Tempol-treated mice","[6]; Tempol 5 mg/g of food from 14 to 31 months after birth, microarray, control mice 416",533
same,Fold change,[6]; [13],1.28
same,Change in expression (in words),[6]; [12],statistically significant increase in expression
same,"Expression, Tempol-treated mice","[7]; Tempol 5 mg/g of food from 14 to 31 months after birth, microarray, control mice 147",265
same,Fold change,"[7]; Tempol-treated vs control mice, P-value 0.034",1.8
same,Change in expression (in words),[7]; [12],statistically significant increase in expression
same,"Expression, Tempol-treated mice","[8]; Tempol 5 mg/g of food from 14 to 31 months after birth, microarray, control mice 5711",6812
same,Fold change,"[8]; Tempol-treated vs control mice, P-value 0.005",1.19
same,Change in expression (in words),[8]; [12],statistically significant increase in expression
same,"Expression, Tempol-treated mice","[9]; Tempol 5 mg/g of food from 14 to 31 months after birth, microarray, control mice 1017",1619
same,Fold change,[9]; [14],1.59
same,Change in expression (in words),[9]; [12],statistically significant increase in expression
same,"Expression, Tempol-treated mice","[10]; Tempol 5 mg/g of food from 14 to 31 months after birth, microarray, control mice 446",546
same,Fold change,"[10]; Tempol-treated vs control mice, P-value 0.035",1.22
same,Change in expression (in words),[10]; [12],statistically significant increase in expression
same,Serum level of GST following treatment,[11]; Example 2: human subject over the age of 65 with decreased expression,increased
same,Serum level of GST following treatment,[11]; Example 3: human subject over the age of 65 having a cardiovascular disease,increased
same,Serum level of GST following treatment,[11]; Example 4: human subject with decreased expression level,increased
same,Serum level of GST following treatment,[11]; Example 5: decreased expression associated with a disease,increased
same,Serum level of GST following treatment,[11]; Example 6: human subject at risk of developing or having a cancer,increased
same,Serum level of GST following treatment,[11]; Example 7: human subject at risk of developing or having an autoimmune disease,increased
same,Serum level of GST following treatment,"[11]; Example 8: human subject, condition due to aging",increased
same,Serum level of GST following treatment,[11]; Example 9: human subject at risk of developing or having a neurodegenerative disease,increased
same,Serum level of GST following treatment,[11]; Example 10: human subject having an infection,increased
